Target: xanthine oxidase from cow's milk (XO) (Bos taurus, UniProt P80457)
Test: uric acid formation at […] nm
Assay type: biochemical

xanthine oxidase from cow's milk (XO), sequence (P80457 2-1332): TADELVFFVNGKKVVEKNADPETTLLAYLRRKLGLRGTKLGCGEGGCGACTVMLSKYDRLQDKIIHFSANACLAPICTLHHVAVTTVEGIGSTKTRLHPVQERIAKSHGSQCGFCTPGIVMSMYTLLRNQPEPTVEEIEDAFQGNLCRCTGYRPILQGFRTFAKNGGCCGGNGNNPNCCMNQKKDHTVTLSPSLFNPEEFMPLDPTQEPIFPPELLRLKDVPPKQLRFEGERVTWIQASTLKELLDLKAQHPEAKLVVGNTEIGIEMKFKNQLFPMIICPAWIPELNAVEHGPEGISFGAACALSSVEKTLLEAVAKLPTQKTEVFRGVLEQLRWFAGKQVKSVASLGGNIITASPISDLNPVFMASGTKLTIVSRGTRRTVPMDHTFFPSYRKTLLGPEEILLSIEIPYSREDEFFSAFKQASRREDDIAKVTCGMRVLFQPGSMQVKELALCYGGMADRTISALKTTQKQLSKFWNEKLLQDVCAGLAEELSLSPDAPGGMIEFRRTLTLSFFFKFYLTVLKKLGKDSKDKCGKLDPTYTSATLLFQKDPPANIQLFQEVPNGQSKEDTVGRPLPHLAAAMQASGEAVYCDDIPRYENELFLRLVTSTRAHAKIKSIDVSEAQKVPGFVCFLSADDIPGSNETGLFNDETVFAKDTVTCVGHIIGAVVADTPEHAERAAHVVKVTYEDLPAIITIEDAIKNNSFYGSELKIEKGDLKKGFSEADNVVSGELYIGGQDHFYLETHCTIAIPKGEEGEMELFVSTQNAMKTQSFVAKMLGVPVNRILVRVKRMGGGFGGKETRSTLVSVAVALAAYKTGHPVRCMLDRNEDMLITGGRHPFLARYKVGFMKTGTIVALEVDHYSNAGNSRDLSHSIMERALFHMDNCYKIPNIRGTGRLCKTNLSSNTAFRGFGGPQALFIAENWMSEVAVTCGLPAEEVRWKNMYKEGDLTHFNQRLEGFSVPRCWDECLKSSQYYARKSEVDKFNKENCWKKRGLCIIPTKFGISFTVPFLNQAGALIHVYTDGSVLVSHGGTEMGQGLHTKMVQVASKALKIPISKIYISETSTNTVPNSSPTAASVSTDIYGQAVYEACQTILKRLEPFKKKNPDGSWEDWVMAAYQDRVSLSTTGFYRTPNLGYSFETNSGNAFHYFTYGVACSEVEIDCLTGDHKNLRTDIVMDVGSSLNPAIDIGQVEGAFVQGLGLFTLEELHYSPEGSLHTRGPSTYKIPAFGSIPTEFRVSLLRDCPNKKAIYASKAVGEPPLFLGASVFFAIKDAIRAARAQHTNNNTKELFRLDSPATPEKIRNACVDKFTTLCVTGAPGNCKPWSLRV

Oc1cc(O)c2c(c1)O[C@H](c1ccc(O)c(O)c1)[C@H](O)[C@H]2c1c(O)cc(O)c2c1O[C@H](c1ccc(O)c(O)c1)[C@@H](O)C2 [procyanidin B1, (−)-epicatechin-(4β,8)-(+)-catechin] was tested, and the IC50 was 92.5 µM.
